Calls of active or inactive are those of the source. The rule behind the calls is not given here. Where a SMILES comes first, the peptide text is derived from it. Side-chain parts run from the residue outwards. The star is where a group is joined. Adamantane1carbonyl = O=C(C12CC3CC(CC(C3)C1)C2)*
Key:
Mu-type opioid receptor = Mu-type opioid receptor (Homo sapiens, UniProt P35372); assay: Agonist activity at mu-opioid receptor (unknown origin) expressed in HEK293A cells assessed as inhibition of forskolin-induced cAMP accumulation measured after 30 mins; assay type: functional, cell-based
Mus musculus [1] = assay: Antinociceptive activity in icv dosed Kunming mouse model of thermal-induced nociception assessed as increase in latency to tail withdrawal up to 60 mins radiant heat tail flick method; assay type: functional
N2a = assay: Effect on neurite outgrowth in mouse Neuro2a cells at 10 uM after 18 hrs by phase contrast microscopic analysis relative to control; assay type: cell-based
[2] = Toxicity in Kunming mouse assessed as inhibition of gastrointestinal transit by measuring reduction in distance traveled by charcoal at 10 to 30 mg/kg, ip dosed 15 mins prior charcoal meal measured after 30 mins; assay type: organism-based; conditions: in vivo, 0.5 h
Mus musculus [3] = assay: Antinociceptive activity in Kunming mouse model of thermal-induced nociception assessed as increase in latency to tail withdrawal at 5 nmol, icv measured up to 60 mins by tail flick test; assay type: functional, organism-based
[4] = molecular target: T1, Neuropeptide FF receptor 1 (Homo sapiens, UniProt Q9GZQ6); assay: Antagonist activity at NPFF1 receptor (unknown origin) expressed in HEK293A cells assessed as reversal of […] induced inhibition of forskolin-stimulated cAMP accumulation measured after 30 mins; assay type: functional, cell-based
[5] = molecular target: T2, Neuropeptide FF receptor 2 (Homo sapiens, UniProt Q9Y5X5); assay: Antagonist activity at NPFF2 receptor (unknown origin) expressed in HEK293A cells assessed as reversal of […] induced inhibition of forskolin-stimulated cAMP accumulation measured after 30 mins; assay type: functional, cell-based
Mus musculus [6] = assay: Antinociceptive activity in Kunming mouse model of thermal-induced nociception assessed as increase in latency to tail withdrawal at 10 nmol, icv measured up to 60 mins by tail flick test; assay type: functional, organism-based
[7] = molecular target: Neuropeptide FF receptor 2 (Mus musculus) (UniProt Q924H0); assay: Antagonist activity at NPFF2 receptor in mouse Neuro2a cells assessed as inhibition of NPFF-induced neurite outgrowth by measuring neurite outgrowth at 10 uM after 18 hrs by phase contrast microscopic analysis (reference value: 24.05 +/- 1.19%); assay type: cell-based; set-up: scale not given: the % may be the effect or the level left
[8] = molecular target: Kappa-type opioid receptor (Homo sapiens) (UniProt P41145)
Description: Agonist activity at kappa-opioid receptor (unknown origin) expressed in HEK293A cells assessed as inhibition of forskolin-induced cAMP accumulation measured after 30 mins

[9] = molecular target: T2, Neuropeptide FF receptor 2; assay: Agonist activity at NPFF2 receptor (unknown origin) expressed in HEK293A cells assessed as inhibition of forskolin-stimulated cAMP accumulation measured after 30 mins; assay type: functional, cell-based
[10] = Toxicity in Kunming mouse assessed as inhibition of gastrointestinal transit by measuring reduction in distance traveled by charcoal at 10 mg/kg, ip dosed 15 mins prior charcoal meal measured after 30 mins; assay type: organism-based; conditions: in vivo, 0.5 h
[11] = molecular target: T1, Neuropeptide FF receptor 1; assay: Agonist activity at NPFF1 receptor (unknown origin) expressed in HEK293A cells assessed as inhibition of forskolin-stimulated cAMP accumulation measured after 30 mins; assay type: functional, cell-based
Mus musculus [12] = assay: Antiallodynic activity in carrageenan-induced Kunming mouse model of mechanical hyperalgesia administered as intrathecal injection after 10 to 90 mins in presence of NPFF receptor antagonist RF9 by Von Frey filament assay; assay type: functional, organism-based
Mus musculus [13] = assay: Antiallodynic activity in carrageenan-induced Kunming mouse model of mechanical hyperalgesia administered as intrathecal injection after 10 to 90 mins by Von Frey filament assay; assay type: functional
[14] = Toxicity in Kunming mouse assessed as impairment of motor coordination at 20 nmol, icv measured after 10 to 40 mins by rotarod test; conditions: in vivo, icv_or_intrathecal
[15] = Toxicity in Kunming mouse assessed as inhibition of gastrointestinal transit by measuring reduction in distance traveled by charcoal at 5 to 20 nmol, icv dosed 15 mins prior charcoal meal measured after 30 mins; assay type: organism-based; conditions: in vivo, icv_or_intrathecal, 0.5 h
[16] = Toxicity in Kunming mouse assessed as impairment of motor coordination at 20 nmol, it measured after 10 to 40 mins by rotarod test; conditions: in vivo, icv_or_intrathecal
Mus musculus [17] = assay: Antinociceptive activity in Kunming mouse model of thermal-induced nociception assessed as increase in latency to tail withdrawal at 10 nmol, icv measured up to 60 mins in presence of NPFF receptor antagonist RF9 by tail flick test; assay type: functional, organism-based
[18] = molecular target: Delta-type opioid receptor (Homo sapiens, UniProt P41143); assay: Agonist activity at delta-opioid receptor (unknown origin) expressed in HEK293A cells assessed as inhibition of forskolin-induced cAMP accumulation measured after 30 mins; assay type: functional, cell-based
Mus musculus [19] = assay: Antinociceptive activity in Kunming mouse model of thermal-induced nociception assessed as increase in latency to tail withdrawal at 2 to 4 nmol, icv administered once daily for 8 days measured daily at 30 mins post dose in presence of NPFF receptor antagonist RF9 by tail flick test; assay type: functional, organism-based
Mus musculus [20] = assay: Antiallodynic activity in carrageenan-induced Kunming mouse model of mechanical hyperalgesia administered as intrathecal injection after 10 to 90 mins in presence of opioid receptor antagonist naloxone by Von Frey filament assay; assay type: functional, organism-based
Mus musculus [21] = assay: Antinociceptive activity in icv dosed Kunming mouse model of thermal-induced nociception assessed as increase in latency to tail withdrawal by tail flick test; assay type: functional
Mus musculus [22] = assay: Antinociceptive activity in Kunming mouse model of thermal-induced nociception assessed as increase in latency to tail withdrawal at 20 nmol, icv measured up to 60 mins in presence of opioid receptor antagonist naloxone by tail flick test; assay type: functional, organism-based
[23] = molecular target: T2, Neuropeptide FF receptor 2; assay: Agonist activity at NPFF2 receptor (unknown origin) expressed in HEK293A cells assessed as inhibition of forskolin-stimulated cAMP accumulation measured after 30 mins relative to NPFF; assay type: functional, cell-based
Mus musculus [24] = assay: Antinociceptive activity in Kunming mouse model of thermal-induced nociception assessed as increase in latency to tail withdrawal at 10 to 20 nmol, icv administered once daily for 5 to 8 days measured daily at 30 mins post dose by tail flick test; assay type: functional, organism-based
Mus musculus [25] = assay: Antinociceptive activity in Kunming mouse model of thermal-induced nociception assessed as increase in latency to tail withdrawal at 4 nmol, icv administered once daily for 8 days measured daily at 30 mins post dose by tail flick test relative to control; assay type: functional
Mus musculus [26] = assay: Antinociceptive activity in Kunming mouse model of thermal-induced nociception assessed as increase in latency to tail withdrawal at 2 nmol, icv administered once daily for 8 days measured daily at 30 mins post dose by tail flick test relative to control; assay type: functional
Mus musculus [27] = assay: Antinociceptive activity in Kunming mouse model of thermal-induced nociception assessed as increase in latency to tail withdrawal at 2 to 4 nmol, icv administered once daily for 8 days measured on days 6 to 8 at 30 mins post dose in presence of NPFF receptor antagonist RF9 by tail flick test; assay type: functional, organism-based
Mus musculus [28] = assay: Antinociceptive activity in Kunming mouse model of thermal-induced nociception assessed as increase in latency to tail withdrawal at 2 to 4 nmol, icv administered once daily for 5 days measured daily at 30 mins post dose by tail flick test; assay type: functional, organism-based
Mus musculus [29] = assay: Antinociceptive activity in Kunming mouse model of thermal-induced nociception assessed as increase in latency to tail withdrawal at 20 nmol, icv measured up to 60 mins in presence of mu-opioid receptor antagonist beta-FNA by tail flick test; assay type: functional, organism-based
Mus musculus [30] = assay: Antinociceptive activity in Kunming mouse model of thermal-induced nociception assessed as increase in latency to tail withdrawal at 20 nmol, icv measured up to 60 mins in presence of delta-opioid receptor antagonist naltrindole by tail flick test; assay type: functional, organism-based
Mus musculus [31] = assay: Antinociceptive activity in Kunming mouse model of thermal-induced nociception assessed as increase in latency to tail withdrawal at 20 nmol, icv measured up to 60 mins in presence of kappa-opioid receptor antagonist nor-BNI by tail flick test; assay type: functional, organism-based

T1 sequence (Q9GZQ6 whole entry): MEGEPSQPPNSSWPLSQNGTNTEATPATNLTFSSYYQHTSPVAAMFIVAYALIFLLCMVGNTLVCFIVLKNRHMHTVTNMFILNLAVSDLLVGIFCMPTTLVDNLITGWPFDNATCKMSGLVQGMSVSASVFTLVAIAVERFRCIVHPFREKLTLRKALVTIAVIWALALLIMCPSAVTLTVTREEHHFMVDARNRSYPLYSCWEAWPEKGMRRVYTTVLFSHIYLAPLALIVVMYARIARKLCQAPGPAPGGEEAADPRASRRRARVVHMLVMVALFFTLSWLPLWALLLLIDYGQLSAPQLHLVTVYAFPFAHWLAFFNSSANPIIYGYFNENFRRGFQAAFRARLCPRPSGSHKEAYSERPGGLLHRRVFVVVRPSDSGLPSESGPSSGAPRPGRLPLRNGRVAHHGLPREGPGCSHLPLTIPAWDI
T2 sequence (Q9Y5X5 whole entry): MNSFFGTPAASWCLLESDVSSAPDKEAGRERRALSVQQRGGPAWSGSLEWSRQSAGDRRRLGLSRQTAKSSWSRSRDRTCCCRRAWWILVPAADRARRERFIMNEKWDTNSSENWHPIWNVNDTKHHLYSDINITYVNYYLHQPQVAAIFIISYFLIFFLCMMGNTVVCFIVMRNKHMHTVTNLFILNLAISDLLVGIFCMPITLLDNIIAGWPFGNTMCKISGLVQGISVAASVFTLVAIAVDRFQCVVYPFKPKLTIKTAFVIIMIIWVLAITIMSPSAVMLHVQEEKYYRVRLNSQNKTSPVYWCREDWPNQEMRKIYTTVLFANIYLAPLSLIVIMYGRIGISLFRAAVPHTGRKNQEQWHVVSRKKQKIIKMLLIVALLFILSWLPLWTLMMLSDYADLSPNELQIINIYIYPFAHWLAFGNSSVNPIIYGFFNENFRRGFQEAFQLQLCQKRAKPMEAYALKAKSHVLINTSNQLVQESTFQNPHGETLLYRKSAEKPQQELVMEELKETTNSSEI
Delta-type opioid receptor, sequence (P41143 whole entry): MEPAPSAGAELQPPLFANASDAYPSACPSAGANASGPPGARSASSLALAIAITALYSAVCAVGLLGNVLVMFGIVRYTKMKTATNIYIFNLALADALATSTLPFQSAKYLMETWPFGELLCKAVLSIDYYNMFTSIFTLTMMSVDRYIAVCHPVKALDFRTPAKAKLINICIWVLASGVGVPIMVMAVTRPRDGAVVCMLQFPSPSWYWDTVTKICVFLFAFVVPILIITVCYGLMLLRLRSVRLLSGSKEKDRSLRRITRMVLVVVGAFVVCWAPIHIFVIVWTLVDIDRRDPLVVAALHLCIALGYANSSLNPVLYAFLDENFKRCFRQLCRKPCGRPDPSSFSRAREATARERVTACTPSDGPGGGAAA
Mu-type opioid receptor, sequence (P35372 whole entry): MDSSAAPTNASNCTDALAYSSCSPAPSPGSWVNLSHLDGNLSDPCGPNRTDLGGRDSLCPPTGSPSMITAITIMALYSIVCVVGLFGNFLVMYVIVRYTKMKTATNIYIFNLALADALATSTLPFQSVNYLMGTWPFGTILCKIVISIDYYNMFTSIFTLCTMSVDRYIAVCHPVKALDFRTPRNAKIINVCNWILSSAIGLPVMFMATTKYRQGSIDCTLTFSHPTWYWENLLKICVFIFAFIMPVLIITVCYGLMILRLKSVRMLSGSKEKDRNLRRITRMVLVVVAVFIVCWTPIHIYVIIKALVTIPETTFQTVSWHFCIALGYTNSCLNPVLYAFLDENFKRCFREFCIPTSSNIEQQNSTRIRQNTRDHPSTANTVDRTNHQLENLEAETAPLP
Neuropeptide FF receptor 2 (Mus musculus), sequence (Q924H0 whole entry): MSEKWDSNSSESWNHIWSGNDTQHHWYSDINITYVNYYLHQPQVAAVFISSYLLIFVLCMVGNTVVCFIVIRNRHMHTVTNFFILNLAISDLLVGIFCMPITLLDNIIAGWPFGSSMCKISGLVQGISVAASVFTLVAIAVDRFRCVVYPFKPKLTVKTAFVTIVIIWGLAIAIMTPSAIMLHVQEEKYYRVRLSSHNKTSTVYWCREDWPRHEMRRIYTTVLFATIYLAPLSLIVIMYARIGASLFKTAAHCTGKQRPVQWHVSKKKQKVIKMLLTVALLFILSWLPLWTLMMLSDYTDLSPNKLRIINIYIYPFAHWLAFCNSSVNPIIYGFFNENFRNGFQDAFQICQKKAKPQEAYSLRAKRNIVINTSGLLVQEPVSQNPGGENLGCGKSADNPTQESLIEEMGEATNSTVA
Kappa-type opioid receptor (Homo sapiens), sequence (P41145 whole entry): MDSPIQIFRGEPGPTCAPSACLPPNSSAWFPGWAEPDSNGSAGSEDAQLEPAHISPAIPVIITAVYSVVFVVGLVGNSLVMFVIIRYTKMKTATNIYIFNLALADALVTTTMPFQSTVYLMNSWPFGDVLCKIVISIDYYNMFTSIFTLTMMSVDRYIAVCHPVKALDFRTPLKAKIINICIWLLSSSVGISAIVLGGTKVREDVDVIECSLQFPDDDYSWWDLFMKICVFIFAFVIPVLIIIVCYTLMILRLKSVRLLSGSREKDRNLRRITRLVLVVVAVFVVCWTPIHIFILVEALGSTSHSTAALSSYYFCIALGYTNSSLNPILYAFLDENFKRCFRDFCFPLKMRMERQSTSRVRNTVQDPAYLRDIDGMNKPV

NC(=O)[C@H](Cc1ccccc1)NC(=O)[C@H](Cc1ccccc1)NC(=O)[C@@H]1CCCN1C(=O)[C@@H](N)Cc1ccc(O)cc1 [ENDOMORPHIN 2]
Emax (Mu-type opioid receptor): 76.8% | ED50 (Mus musculus [1]): 6.88 nmol | Activity (N2a): 16.49% | Activity [2]: Non-Toxic

C=CCN1CC[C@]23c4c5ccc(O)c4O[C@H]2C(=O)CC[C@@]3(O)[C@H]1C5
Activity (Mus musculus [3]): inactive

NC(=O)[C@H](Cc1ccccc1)NC(=O)[C@H](CCCN=C(N)N)NC(=O)C12CC3CC(CC(C3)C1)C2
IC50 [4]: 410 nM | IC50 [5]: 410 nM | Activity (N2a): 12.41%

COC(=O)/C=C/C(=O)N[C@@H]1CC[C@@]2(O)[C@H]3Cc4ccc(O)c5c4[C@@]2(CCN3CC2CC2)[C@H]1O5
Activity (Mus musculus [6]): inactive

N=C(N)NCCC[C@H](NC(=O)C12CC3CC(CC(C3)C1)C2)C(=O)N[C@@H](Cc1ccccc1)C(N)=O
inhibition [4]: Dose-dependent effect | Activity (Mus musculus [6]): inactive | Activity [7]: 12.9%

N=C(N)NCCC[C@H](NC(=O)C12CC3CC(CC(C3)C1)C2)C(=O)N[C@@H](Cc1ccccc1)C(=O)NCCCC[C@H](NC(=O)[C@H](Cc1ccccc1)NC(=O)[C@H](Cc1ccccc1)NC(=O)[C@@H]1CCCN1C(=O)[C@@H](N)Cc1ccc(O)cc1)C(N)=O (H-YPFFK([Phe-Arg-Adamantane1carbonyl])-NH2)
pEC50 [8]: inactive | EC50 [9]: 170 nM | Emax [9]: 26.6% | inhibition [9]: Dose-dependent effect | IC50 [4]: 520 nM | inhibition [4]: Dose-dependent effect | Activity [10]: Non-Toxic | Emax [11]: inactive | pEC50 [11]: inactive | Activity (Mus musculus [12]): inactive | IC50 [5]: 520 nM | EC50 (Mu-type opioid receptor): 1770 nM | Emax (Mu-type opioid receptor): 54.3% | Activity (Mus musculus [13]): Dose-dependent effect | ED50 (Mus musculus [13]): 9.25 nmol | Activity [14]: Non-Toxic | Activity [15]: Non-Toxic | Activity [16]: Non-Toxic | Activity (Mus musculus [17]): Active | Emax [18]: 55.9% | EC50 ([18]; read-out: EC50): 2240 nM | EC50 ([18]; read-out: pEC50 (converted)): 2000 nM | Activity (Mus musculus [19]): Active | Activity (Mus musculus [20]): inactive | ED50 (Mus musculus [21]): 6.27 nmol | Activity [7]: 10.3% | Activity (Mus musculus [22]): inactive | Emax [23]: 50.9% | Activity (N2a): 11.88% | Activity (Mus musculus [24]): Active

Oc1ccc2c3c1O[C@H]1c4[nH]c5c(c4C[C@@]4(O)[C@@H](C2)N(CC2CC2)CC[C@]314)C[C@@]1(O)[C@H]2Cc3ccc(O)c4c3[C@@]1(CCN2CC1CC1)[C@H]5O4
Activity (Mus musculus [6]): inactive

CN1CC[C@]23c4c5ccc(O)c4O[C@H]2[C@@H](O)C=C[C@H]3[C@H]1C5 [MORPHINE]
Activity [10]: Toxic | Activity (Mus musculus [12]): Active | Activity (Mus musculus [13]): Dose-dependent effect | ED50 (Mus musculus [13]): 0.44 nmol | MPE (Mus musculus [25]): 9.88% | MPE (Mus musculus [26]): 6.67% | Activity (Mus musculus [20]): inactive | Activity (Mus musculus [27]): Active | Activity (Mus musculus [28]): inactive

Oc1ccc2c3c1O[C@H]1c4[nH]c5ccccc5c4C[C@@]4(O)[C@@H](C2)N(CC2CC2)CC[C@]314
Activity (Mus musculus [6]): inactive

N=C(N)NCCC[C@H](NC(=O)C12CC3CC(CC(C3)C1)C2)C(=O)N[C@@H](Cc1ccccc1)C(=O)N[C@@H](CCCCNC(=O)[C@H](Cc1ccccc1)NC(=O)[C@H](Cc1ccccc1)NC(=O)[C@@H]1CCCN1C(=O)[C@@H](N)Cc1ccc(O)cc1)C(N)=O
pEC50 [8]: inactive | EC50 [9]: 250 nM | Emax [9]: 31.3% | inhibition [9]: Dose-dependent effect | IC50 [4]: 190 nM | inhibition [4]: Dose-dependent effect | Activity [10]: Non-Toxic | Emax [11]: inactive | pEC50 [11]: inactive | Activity (Mus musculus [12]): inactive | IC50 [5]: 190 nM | Activity (Mus musculus [29]): inactive | EC50 (Mu-type opioid receptor): 1900 nM | Emax (Mu-type opioid receptor): 62% | Activity (Mus musculus [13]): Dose-dependent effect | ED50 (Mus musculus [13]): 8.16 nmol | Activity [14]: Non-Toxic | Activity [15]: Non-Toxic | Activity [16]: Non-Toxic | Activity (Mus musculus [17]): Active | Emax [18]: inactive | pEC50 [18]: inactive | Activity (Mus musculus [19]): Active | Activity (Mus musculus [20]): inactive | ED50 (Mus musculus [21]): 4.8 nmol | Activity [7]: 14.1% | Activity (Mus musculus [22]): inactive | Emax [23]: 60% | Activity (N2a): 12.71% | Activity (Mus musculus [30]): Active | Activity (Mus musculus [31]): Active | Activity (Mus musculus [24]): Active

CC(C)C[C@H](NC(=O)[C@H](Cc1ccccc1)NC(=O)[C@H](C)N(C)C(=O)[C@@H]1CCCN1C(=O)[C@H](N)CC(N)=O)C(=O)N[C@@H](Cc1ccccc1)C(=O)N[C@@H](CCC(N)=O)C(=O)N1CCC[C@H]1C(=O)N[C@@H](CCC(N)=O)C(=O)N[C@@H](CCCNC(=N)N)C(=O)N[C@@H](Cc1ccccc1)C(N)=O
Activity (Mus musculus [12]): inactive | Activity (Mus musculus [13]): Dose-dependent effect | ED50 (Mus musculus [13]): 26.2 nmol | Activity (Mus musculus [20]): inactive

Reference: ChEMBL document CHEMBL4330128, “Discovery of two novel branched peptidomimetics containing endomorphin-2 and RF9 pharmacophores: Synthesis and neuropharmacological evaluation” (Bioorg Med Chem, 2019)
